# In patent US11241440B2, “Dihydrooxadiazine compounds for treating infections and cancer” (VALORALIA I MÁS D, SL, priority 2016, dated 2022):
# What was measured:
# [1] = system: T. pulmonis; test: Kirby-Bauer disk diffusion susceptibility test; format: cell-based, Tsukamurella pulmonis
# [2] = system: N. carnea; test: Kirby-Bauer disk diffusion susceptibility test; format: cell-based, Nocardia carnea
# [3] = system: S. epidermidis; test: Kirby-Bauer disk diffusion susceptibility test; format: cell-based, Staphylococcus epidermidis; note: key: I = intermediate activity; S = susceptibility; R = Resistance
# [4] = system: N. cyriacigeorgica; test: Kirby-Bauer disk diffusion susceptibility test; format: cell-based
# [5] = system: A. baumannii; test: Kirby-Bauer disk diffusion susceptibility test; format: cell-based, Acinetobacter baumannii; note: key: I = intermediate activity; S = susceptibility; R = Resistance
# [6] = system: S. aureus; test: Kirby-Bauer disk diffusion susceptibility test; format: cell-based, Staphylococcus aureus; note: key: I = intermediate activity; S = susceptibility; R = Resistance
# [7] = system: B. cereus; test: Kirby-Bauer disk diffusion susceptibility test; format: cell-based, Bacillus cereus; note: key: I = intermediate activity; S = susceptibility; R = Resistance
# [8] = system: A. terreus; conditions: A. terreus ATe-001; cited from earlier work; note: key: I = intermediate activity; S = susceptibility; R = Resistance
# [9] = system: A. fumigatus; conditions: A. fumigatus AFu-001; cited from earlier work; note: key: I = intermediate activity; S = susceptibility; R = Resistance
# [10] = system: C. parapsilosis; conditions: C. parapsilosis CP-007; cited from earlier work; note: key: I = intermediate activity; S = susceptibility; R = Resistance
# [11] = system: A. flavus; conditions: A. flavus AF-001; cited from earlier work; note: key: I = intermediate activity; S = susceptibility; R = Resistance
# [12] = system: M. fortuitum; test: Kirby-Bauer disk diffusion susceptibility test; note: key: I = intermediate activity; S = susceptibility; R = Resistance; format: cell-based; conditions: M. fortuitum strain 1080, isolation year 2011
# [13] = system: M. abscessus; test: Kirby-Bauer disk diffusion susceptibility test; note: key: I = intermediate activity; S = susceptibility; R = Resistance; format: cell-based, Mycobacterium abscessus; conditions: M. abscessus strain 690, isolation year 2012
# [14] = system: M. chelonae; test: Kirby-Bauer disk diffusion susceptibility test; format: cell-based; conditions: M. chelonae strain 870, isolation year 2011
# [15] = T. pulmonis strain 40, isolation year 2015
# [16] = T. pulmonis strain 1991, isolation year 2009
# [17] = N. carnea strain 40, isolation year 2011
# [18] = N. carnea strain 769, isolation year 2009
# [19] = S. epidermidis strain 188, isolation year 2009
# [20] = S. epidermidis strain 982, isolation year 2006
# [21] = N. cyriacigeorgica strain 30, isolation year 2005
# [22] = N. cyriacigeorgica strain 199, isolation year 2005
# [23] = A. baumannii strain 300, isolation year 2001
# [24] = A. baumannii strain 1301, isolation year 2009
# [25] = S. aureus strain 282, isolation year 2005
# [26] = S. aureus strain 890, isolation year 2010
# [27] = B. cereus strain 25, isolation year 2014
# [28] = B. cereus strain 182, isolation year 2013
compound,measurement,setting,value
"NCC[C@H](O)C(=O)N[C@@H]1C[C@H](N)[C@@H](O[C@H]2O[C@H](CN)[C@@H](O)[C@H](O)[C@H]2O)[C@H](O)[C@H]1O[C@H]1O[C@H](CO)[C@@H](O)[C@H](N)[C@H]1O [AMK, Amikacin]",Characteristics of strains: susceptibility or resistance,[1]; [15],R
same,Characteristics of strains: susceptibility or resistance,[1]; [16],S
same,Characteristics of strains: susceptibility or resistance,[2]; [17],R
same,Characteristics of strains: susceptibility or resistance,[2]; [18],S
same,Characteristics of strains: susceptibility or resistance,[3]; [19],S
same,Characteristics of strains: susceptibility or resistance,[3]; [20],S
same,Characteristics of strains: susceptibility or resistance,[4]; [21],S
same,Characteristics of strains: susceptibility or resistance,[4]; [22],R
same,Characteristics of strains: susceptibility or resistance,[5]; [23],R
same,Characteristics of strains: susceptibility or resistance,[5]; [24],S
same,Characteristics of strains: susceptibility or resistance,[6]; [25],S
same,Characteristics of strains: susceptibility or resistance,[6]; [26],S
"CO/N=C(\C(=O)N[C@@H]1C(=O)N2C(C(=O)O)=C(CSc3nc(=O)c(O)nn3C)CS[C@H]12)c1csc(N)n1 [CEF, Ceftriazone]",Characteristics of strains: susceptibility or resistance,[5]; [23],R
same,Characteristics of strains: susceptibility or resistance,[5]; [24],R
"CCC[C@@H]1C[C@@H](C(=O)N[C@@H]([C@H]2O[C@H](SC)[C@H](O)[C@@H](O)[C@H]2O)[C@H](C)Cl)N(C)C1 [CLI, Clindamycin]",Characteristics of strains: susceptibility or resistance,[7]; [27],R
same,Characteristics of strains: susceptibility or resistance,[7]; [28],R
same,Characteristics of strains: susceptibility or resistance,[3]; [19],S
same,Characteristics of strains: susceptibility or resistance,[3]; [20],R
same,Characteristics of strains: susceptibility or resistance,[6]; [25],R
same,Characteristics of strains: susceptibility or resistance,[6]; [26],R
"CO/N=C(\C(=O)N[C@@H]1C(=O)N2C(C(=O)O)=C(COC(C)=O)CS[C@H]12)c1csc(N)n1 [CTX, Cefotaxime]",Characteristics of strains: susceptibility or resistance,[1]; [15],R
same,Characteristics of strains: susceptibility or resistance,[1]; [16],S
same,Characteristics of strains: susceptibility or resistance,[2]; [17],S
same,Characteristics of strains: susceptibility or resistance,[2]; [18],S
same,Characteristics of strains: susceptibility or resistance,[4]; [21],S
same,Characteristics of strains: susceptibility or resistance,[4]; [22],R
Clc1ccccc1C(c1ccccc1)(c1ccccc1)n1ccnc1 [Clotrimazole],Characteristics of the strains: susceptibility class,[8],S
same,Characteristics of the strains: susceptibility class,[9],S
same,Characteristics of the strains: susceptibility class,[10],S
same,Characteristics of the strains: susceptibility class,[11],S
"CC[C@H]1OC(=O)[C@H](C)[C@@H](O[C@H]2C[C@@](C)(OC)[C@@H](O)[C@H](C)O2)[C@H](C)[C@@H](O[C@@H]2O[C@H](C)C[C@H](N(C)C)[C@H]2O)[C@](C)(O)C[C@@H](C)C(=O)[C@H](C)[C@@H](O)[C@]1(C)O [ERI, Erythromycin]",Characteristics of strains: susceptibility or resistance,[12],R
same,Characteristics of strains: susceptibility or resistance,[7]; [27],R
same,Characteristics of strains: susceptibility or resistance,[7]; [28],R
same,Characteristics of strains: susceptibility or resistance,[1]; [15],R
same,Characteristics of strains: susceptibility or resistance,[1]; [16],S
same,Characteristics of strains: susceptibility or resistance,[2]; [17],R
same,Characteristics of strains: susceptibility or resistance,[2]; [18],R
same,Characteristics of strains: susceptibility or resistance,[13],S
same,Characteristics of strains: susceptibility or resistance,[3]; [19],S
same,Characteristics of strains: susceptibility or resistance,[3]; [20],R
same,Characteristics of strains: susceptibility or resistance,[4]; [21],R
same,Characteristics of strains: susceptibility or resistance,[4]; [22],R
same,Characteristics of strains: susceptibility or resistance,[6]; [25],R
same,Characteristics of strains: susceptibility or resistance,[6]; [26],R
same,Characteristics of strains: susceptibility or resistance,[14],R
OC(Cn1cncn1)(Cn1cncn1)c1ccc(F)cc1F [Fluconazole],Characteristics of the strains: susceptibility class,[8],R
same,Characteristics of the strains: susceptibility class,[9],R
same,Characteristics of the strains: susceptibility class,[10],S
same,Characteristics of the strains: susceptibility class,[11],R
"C[C@@H](O)[C@H]1C(=O)N2C(C(=O)O)=C(SCCN=CN)C[C@H]12 [IMP, Imipenem]",Characteristics of strains: susceptibility or resistance,[12],R
same,Characteristics of strains: susceptibility or resistance,[1]; [15],S
same,Characteristics of strains: susceptibility or resistance,[1]; [16],S
same,Characteristics of strains: susceptibility or resistance,[2]; [17],R
same,Characteristics of strains: susceptibility or resistance,[2]; [18],S
same,Characteristics of strains: susceptibility or resistance,[13],R
same,Characteristics of strains: susceptibility or resistance,[4]; [21],S
same,Characteristics of strains: susceptibility or resistance,[4]; [22],R
same,Characteristics of strains: susceptibility or resistance,[5]; [23],R
same,Characteristics of strains: susceptibility or resistance,[5]; [24],S
same,Characteristics of strains: susceptibility or resistance,[14],R
CC(=O)N1CCN(c2ccc(OCC3COC(Cn4ccnc4)(c4ccc(Cl)cc4Cl)O3)cc2)CC1 (stereo not drawn) [Ketoconazole],Characteristics of the strains: susceptibility class,[8],S
same,Characteristics of the strains: susceptibility class,[9],S
same,Characteristics of the strains: susceptibility class,[10],S
same,Characteristics of the strains: susceptibility class,[11],S
"CC(=O)NC[C@H]1CN(c2ccc(N3CCOCC3)c(F)c2)C(=O)O1 [LIN, Linezolid]",Characteristics of strains: susceptibility or resistance,[12],R
same,Characteristics of strains: susceptibility or resistance,[1]; [15],R
same,Characteristics of strains: susceptibility or resistance,[1]; [16],S
same,Characteristics of strains: susceptibility or resistance,[2]; [17],S
same,Characteristics of strains: susceptibility or resistance,[2]; [18],S
same,Characteristics of strains: susceptibility or resistance,[13],S
same,Characteristics of strains: susceptibility or resistance,[4]; [21],S
same,Characteristics of strains: susceptibility or resistance,[4]; [22],S
same,Characteristics of strains: susceptibility or resistance,[14],R
"C[C@@H](O)[C@H]1C(=O)N2C(C(=O)O)=C(S[C@@H]3CN[C@H](C(=O)N(C)C)C3)[C@H](C)[C@H]12 [MER, Meropenem]",Characteristics of strains: susceptibility or resistance,[5]; [23],R
same,Characteristics of strains: susceptibility or resistance,[5]; [24],S
"CO[C@H]1/C=C/O[C@@]2(C)Oc3c(C)c(O)c4c(O)c(c(/C=N/N5CCN(C)CC5)c(O)c4c3C2=O)NC(=O)/C(C)=C\C=C\[C@H](C)[C@H](O)[C@@H](C)[C@@H](O)[C@@H](C)[C@H](OC(C)=O)[C@@H]1C [RIF, Rifampicin]",Characteristics of strains: susceptibility or resistance,[7]; [27],S
same,Characteristics of strains: susceptibility or resistance,[7]; [28],S
"CN(C)[C@@H]1C(O)=C(C(N)=O)C(=O)[C@@]2(O)C(O)=C3C(=O)c4c(O)cccc4[C@@](C)(O)[C@H]3C[C@@H]12 [TET, Tetracycline]",Characteristics of strains: susceptibility or resistance,[7]; [27],R
same,Characteristics of strains: susceptibility or resistance,[7]; [28],S
same,Characteristics of strains: susceptibility or resistance,[3]; [19],S
same,Characteristics of strains: susceptibility or resistance,[3]; [20],S
same,Characteristics of strains: susceptibility or resistance,[6]; [25],S
same,Characteristics of strains: susceptibility or resistance,[6]; [26],R
"NC[C@H]1O[C@H](O[C@H]2[C@H](O)[C@@H](O[C@H]3O[C@H](CO)[C@@H](O)[C@H](N)[C@H]3O)[C@H](N)C[C@@H]2N)[C@H](N)C[C@@H]1O [TOB, Tobramycin]",Characteristics of strains: susceptibility or resistance,[5]; [23],S
same,Characteristics of strains: susceptibility or resistance,[5]; [24],S
"CN[C@H](CC(C)C)C(=O)N[C@H]1C(=O)N[C@@H](CC(N)=O)C(=O)N[C@H]2C(=O)N[C@H]3C(=O)N[C@H](C(=O)N[C@H](C(=O)O)c4cc(O)cc(O)c4-c4cc3ccc4O)[C@H](O)c3ccc(c(Cl)c3)Oc3cc2cc(c3O[C@@H]2O[C@H](CO)[C@@H](O)[C@H](O)[C@H]2O[C@H]2C[C@](C)(N)[C@H](O)[C@H](C)O2)Oc2ccc(cc2Cl)[C@H]1O [VAN, Vancomycin]",Characteristics of strains: susceptibility or resistance,[7]; [27],S
same,Characteristics of strains: susceptibility or resistance,[7]; [28],S
same,Characteristics of strains: susceptibility or resistance,[3]; [19],S
same,Characteristics of strains: susceptibility or resistance,[3]; [20],S
same,Characteristics of strains: susceptibility or resistance,[6]; [25],S
same,Characteristics of strains: susceptibility or resistance,[6]; [26],S
Gentamicin,Characteristics of strains: susceptibility or resistance,[3]; [19],S
same,Characteristics of strains: susceptibility or resistance,[3]; [20],R
same,Characteristics of strains: susceptibility or resistance,[6]; [25],R
same,Characteristics of strains: susceptibility or resistance,[6]; [26],R
Penicillin,Characteristics of strains: susceptibility or resistance,[12],R
same,Characteristics of strains: susceptibility or resistance,[7]; [27],S
same,Characteristics of strains: susceptibility or resistance,[7]; [28],S
same,Characteristics of strains: susceptibility or resistance,[13],R
